Activity calls are given as the source filed them.

In the first assay the target is T1, Fatty acid synthase (Homo sapiens, UniProt P49327). The assay can be described thus: FAS thioesterase domain inhibitors, dose response, biochemical, endpoint fluorescence intensity, uHTS hits (AID 624327).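 Further: fluorescence from hydrolysis of an O-methyl fluorescein acyl ester substrate by the enzyme.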 It is filed as functional.
T1 sequence (P49327 whole entry, the tested form may be a part): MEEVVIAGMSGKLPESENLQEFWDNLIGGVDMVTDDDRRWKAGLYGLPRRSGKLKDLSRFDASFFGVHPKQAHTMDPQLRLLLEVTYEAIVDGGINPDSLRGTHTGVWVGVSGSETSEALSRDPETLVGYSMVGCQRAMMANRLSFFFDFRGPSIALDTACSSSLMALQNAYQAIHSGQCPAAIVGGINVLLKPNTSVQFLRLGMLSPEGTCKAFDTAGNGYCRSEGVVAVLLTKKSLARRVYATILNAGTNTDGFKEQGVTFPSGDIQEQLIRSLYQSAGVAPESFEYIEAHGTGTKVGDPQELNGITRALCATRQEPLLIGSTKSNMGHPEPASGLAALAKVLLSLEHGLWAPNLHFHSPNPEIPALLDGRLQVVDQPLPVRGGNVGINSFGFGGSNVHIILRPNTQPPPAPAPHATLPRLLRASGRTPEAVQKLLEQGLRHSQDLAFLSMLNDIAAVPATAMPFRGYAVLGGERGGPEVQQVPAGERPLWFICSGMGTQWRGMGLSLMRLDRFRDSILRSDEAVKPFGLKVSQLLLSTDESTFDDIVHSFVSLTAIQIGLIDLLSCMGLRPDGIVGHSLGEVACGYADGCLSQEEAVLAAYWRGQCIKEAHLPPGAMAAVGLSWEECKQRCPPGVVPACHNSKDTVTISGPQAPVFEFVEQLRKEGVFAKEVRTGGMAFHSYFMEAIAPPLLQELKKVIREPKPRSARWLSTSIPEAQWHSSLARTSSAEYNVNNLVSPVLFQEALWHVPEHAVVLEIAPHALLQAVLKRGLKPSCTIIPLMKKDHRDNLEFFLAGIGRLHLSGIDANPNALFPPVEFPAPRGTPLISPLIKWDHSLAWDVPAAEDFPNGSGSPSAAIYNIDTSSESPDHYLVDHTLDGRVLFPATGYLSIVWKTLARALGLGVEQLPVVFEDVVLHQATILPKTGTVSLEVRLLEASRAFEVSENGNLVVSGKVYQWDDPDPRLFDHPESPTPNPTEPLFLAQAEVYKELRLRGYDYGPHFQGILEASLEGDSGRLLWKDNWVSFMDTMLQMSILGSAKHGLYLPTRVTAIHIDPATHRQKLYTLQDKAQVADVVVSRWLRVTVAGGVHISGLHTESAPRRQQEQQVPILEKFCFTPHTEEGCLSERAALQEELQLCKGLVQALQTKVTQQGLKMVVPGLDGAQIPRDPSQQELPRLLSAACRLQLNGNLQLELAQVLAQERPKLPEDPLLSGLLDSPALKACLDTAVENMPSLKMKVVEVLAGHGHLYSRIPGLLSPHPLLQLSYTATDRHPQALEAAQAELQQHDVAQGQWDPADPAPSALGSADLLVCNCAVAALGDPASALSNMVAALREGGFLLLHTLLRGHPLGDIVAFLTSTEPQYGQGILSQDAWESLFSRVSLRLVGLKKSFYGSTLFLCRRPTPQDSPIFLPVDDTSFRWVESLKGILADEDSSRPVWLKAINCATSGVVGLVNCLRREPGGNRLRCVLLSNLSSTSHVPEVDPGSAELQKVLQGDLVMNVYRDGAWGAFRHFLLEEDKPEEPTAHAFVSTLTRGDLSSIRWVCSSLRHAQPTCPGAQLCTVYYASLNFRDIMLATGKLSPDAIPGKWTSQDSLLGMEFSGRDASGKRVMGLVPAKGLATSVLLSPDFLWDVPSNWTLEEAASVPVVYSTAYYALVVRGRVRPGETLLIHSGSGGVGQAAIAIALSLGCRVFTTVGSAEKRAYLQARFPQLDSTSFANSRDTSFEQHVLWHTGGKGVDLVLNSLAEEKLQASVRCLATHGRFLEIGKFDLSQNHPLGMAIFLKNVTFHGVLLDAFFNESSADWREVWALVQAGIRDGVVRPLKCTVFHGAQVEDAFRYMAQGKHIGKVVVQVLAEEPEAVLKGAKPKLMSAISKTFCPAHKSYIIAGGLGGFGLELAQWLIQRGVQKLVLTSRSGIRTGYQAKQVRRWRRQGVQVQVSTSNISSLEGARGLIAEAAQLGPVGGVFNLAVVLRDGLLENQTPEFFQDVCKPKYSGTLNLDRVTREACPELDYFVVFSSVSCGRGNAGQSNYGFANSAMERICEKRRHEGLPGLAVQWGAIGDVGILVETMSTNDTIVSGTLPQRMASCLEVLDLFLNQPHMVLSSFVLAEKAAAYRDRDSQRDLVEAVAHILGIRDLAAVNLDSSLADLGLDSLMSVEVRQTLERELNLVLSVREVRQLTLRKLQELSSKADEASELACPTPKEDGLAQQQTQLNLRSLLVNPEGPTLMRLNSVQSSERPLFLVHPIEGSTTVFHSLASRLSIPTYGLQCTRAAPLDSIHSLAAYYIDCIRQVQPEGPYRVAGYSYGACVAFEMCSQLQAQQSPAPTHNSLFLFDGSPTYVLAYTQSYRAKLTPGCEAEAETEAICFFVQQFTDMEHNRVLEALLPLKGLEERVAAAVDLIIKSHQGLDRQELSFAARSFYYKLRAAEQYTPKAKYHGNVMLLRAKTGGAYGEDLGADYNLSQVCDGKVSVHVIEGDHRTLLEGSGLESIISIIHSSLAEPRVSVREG
With `Cc1c(C)c2ccc(OCC(=O)N3CCN(c4ccccc4)CC3)cc2oc1=O`, the IC50 was 5.34 µM (active).

As to `O=C(c1cc2cc3ccc(Cl)cc3nc2o1)N1CCCCCC1`, the half-maximal inhibitory concentration (IC50) is 18.7 µM (active).

Turning to `Cc1ccn2c(=O)nc(SCC(=O)N3N=C(c4cccs4)CC3c3ccc(F)cc3)nc2c1` (stereo not drawn), the IC50 was 13.9 µM (active).

As to `O=C(COC(=O)c1cccc([N+](=O)[O-])c1)NC1CCCC1`, the half-inhibitory concentration (IC50) was 9.58 µM (active).

In the case of `Cc1noc(C)c1NC(=O)Nc1cccc2c1O[C@H](CN(C)C(=O)Nc1ccccc1)[C@@H](C)CN([C@H](C)CO)C2=O`, the half-maximal inhibitory concentration (IC50) was 13 µM (active).

In the case of `O=C(CC1C[C@H](C(=O)N2CCOCC2)[C@@]2(CCC3CCCC3)c3[nH]c4ccccc4c3CCN2C1=O)NCCN1CCOCC1` (stereo partly drawn), the concentration for half-maximal inhibition (IC50) is 2.6 µM (active).

Consider `Fc1ccc(-n2c(Cc3ccccc3)nnc2SCc2nc(-c3ccc(Cl)cc3)no2)cc1`, for which the IC50 is 14 µM (active).

As for `CCN(CC)S(=O)(=O)c1ccc(N2CCc3ccccc3C2)nc1`, the IC50 is 4.19 µM (active).

As to `O=C(/C=C/c1cccc([N+](=O)[O-])c1)NCCc1ccc(F)cc1`, the IC50 was 10.7 µM (active).

Another assay concerns Streptococcus. The assay can be described thus: Group A Streptococcus viability loss, dose response, counter-screen for streptokinase expression inhibitor project, luminescence, BacTiterGlo (AID 1915).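 Further: potency for reduction of bacterial viability or growth.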 It is filed as functional, organism-based. Background: The purpose of a counterscreen is to sort out artefacts and off-target activity.
As for `COc1ccc(C2CC(c3cccs3)=NN2C(=O)CSC2=NCCS2)cc1` (stereo not drawn), the EC50 was > 150 µM (not active).

In a further assay the target is T2, Replicative DNA helicase DnaB (Mycobacterium tuberculosis, UniProt P9WMR3).
T2 sequence (P9WMR3 whole entry): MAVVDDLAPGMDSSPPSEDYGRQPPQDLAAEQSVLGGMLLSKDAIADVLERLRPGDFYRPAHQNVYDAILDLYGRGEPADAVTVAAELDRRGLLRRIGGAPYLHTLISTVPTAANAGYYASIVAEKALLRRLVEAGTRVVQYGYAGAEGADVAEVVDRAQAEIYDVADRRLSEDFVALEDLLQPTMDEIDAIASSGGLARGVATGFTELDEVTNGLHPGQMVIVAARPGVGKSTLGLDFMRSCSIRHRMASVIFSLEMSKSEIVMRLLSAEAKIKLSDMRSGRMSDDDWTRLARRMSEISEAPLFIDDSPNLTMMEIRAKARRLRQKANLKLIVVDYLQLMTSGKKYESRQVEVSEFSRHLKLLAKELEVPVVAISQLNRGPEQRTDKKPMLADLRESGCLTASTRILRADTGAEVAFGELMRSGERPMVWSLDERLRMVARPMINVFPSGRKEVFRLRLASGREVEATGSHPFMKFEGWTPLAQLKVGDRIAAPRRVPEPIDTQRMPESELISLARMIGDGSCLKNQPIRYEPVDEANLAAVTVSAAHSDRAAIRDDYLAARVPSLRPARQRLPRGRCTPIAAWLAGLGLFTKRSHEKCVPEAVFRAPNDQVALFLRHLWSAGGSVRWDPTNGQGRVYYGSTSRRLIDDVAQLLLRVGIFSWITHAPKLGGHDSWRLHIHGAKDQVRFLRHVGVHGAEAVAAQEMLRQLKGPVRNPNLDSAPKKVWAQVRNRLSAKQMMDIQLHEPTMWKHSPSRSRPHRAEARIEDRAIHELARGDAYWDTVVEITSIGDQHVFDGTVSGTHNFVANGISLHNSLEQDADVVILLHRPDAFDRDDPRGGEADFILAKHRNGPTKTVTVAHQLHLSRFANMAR
Briefly: DnaB intein splicing inhibitors, dose response, biochemical, cell-free fluorescence (AID 449749). It is filed as functional.
Take `Cc1cc(C)n(-c2ccc([N+](=O)[O-])cc2)n1`: the AC50 was > 380 µM (inactive).

Consider `O=c1[nH]cc(O)c(=O)[nH]1`, for which the concentration at half-maximal activity (AC50) is 7.97 µM (active).

Turning to `Cc1ccc(C2C(C#N)=C(N)Oc3[nH]nc(-c4cccs4)c32)s1` (stereo not drawn), the AC50 is 1.54 µM (active).

Take `Cc1n[nH]c2c1C(c1c[nH]nc1-c1ccc(F)cc1)C(C#N)=C(N)O2` (stereo not drawn): the half-maximal activity concentration (AC50) is 12.1 µM (active).

With `COc1ccc(C2CC(c3cccs3)=NN2C(=O)CSC2=NCCS2)cc1` (stereo not drawn), the AC50 is 10.9 µM (active).

For the next assay, the target named is T3, Streptokinase A (Streptococcus pyogenes serotype M1, UniProt P10520).
T3 sequence (P10520 whole entry): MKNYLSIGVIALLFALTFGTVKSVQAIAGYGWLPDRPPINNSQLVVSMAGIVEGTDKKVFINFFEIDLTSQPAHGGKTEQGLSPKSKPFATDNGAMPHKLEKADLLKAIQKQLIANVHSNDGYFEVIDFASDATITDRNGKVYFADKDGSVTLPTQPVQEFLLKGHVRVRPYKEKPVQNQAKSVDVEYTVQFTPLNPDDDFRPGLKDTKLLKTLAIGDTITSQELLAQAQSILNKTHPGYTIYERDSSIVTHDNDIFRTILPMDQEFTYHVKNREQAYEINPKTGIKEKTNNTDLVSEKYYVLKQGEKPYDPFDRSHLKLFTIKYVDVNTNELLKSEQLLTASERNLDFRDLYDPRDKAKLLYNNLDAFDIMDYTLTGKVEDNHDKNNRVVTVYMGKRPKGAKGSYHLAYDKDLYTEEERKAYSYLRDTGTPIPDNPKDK
Briefly: S. pyogenes streptokinase expression inhibitors, potency, dose response, plasminogen activation absorbance, OD405 (AID 1914).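 Further: secreted streptokinase activity via plasminogen activation per viability signal from cell pellet.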 The class given is functional, Streptococcus pyogenes M1 GAS.
Consider `COc1ccc(C2CC(c3cccs3)=NN2C(=O)CSC2=NCCS2)cc1` (stereo not drawn), for which the EC50 is recorded as > 150 µM (not active).

In the next assay the target is T1, Fatty acid synthase. Briefly: FAS thioesterase domain inhibitors, dose response, biochemical, kinetic fluorescence intensity (AID 624326).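 Further: rate of fluorescence rise from hydrolysis of a fluorogenic O-methyl fluorescein ester substrate.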 It is filed as functional.
Consider `Cc1c(C)c2ccc(OCC(=O)N3CCN(c4ccccc4)CC3)cc2oc1=O`, for which the IC50 was 6.95 µM (active).

As to `O=C(c1cc2cc3ccc(Cl)cc3nc2o1)N1CCCCCC1`, the concentration for half-maximal inhibition (IC50) is 15.6 µM (active).

As for `Cc1ccn2c(=O)nc(SCC(=O)N3N=C(c4cccs4)CC3c3ccc(F)cc3)nc2c1` (stereo not drawn), the IC50 is 10.3 µM (active).

Consider `O=C(COC(=O)c1cccc([N+](=O)[O-])c1)NC1CCCC1`, for which the half-inhibitory concentration (IC50) was 8.78 µM (active).

Regarding `Cc1noc(C)c1NC(=O)Nc1cccc2c1O[C@H](CN(C)C(=O)Nc1ccccc1)[C@@H](C)CN([C@H](C)CO)C2=O`, the IC50 was 9.53 µM (active).

For `O=C(CC1C[C@H](C(=O)N2CCOCC2)[C@@]2(CCC3CCCC3)c3[nH]c4ccccc4c3CCN2C1=O)NCCN1CCOCC1` (stereo partly drawn), the IC50 was 2.17 µM (active).

For the compound `Fc1ccc(-n2c(Cc3ccccc3)nnc2SCc2nc(-c3ccc(Cl)cc3)no2)cc1`, the IC50 was 8.88 µM (active).

For the compound `CCN(CC)S(=O)(=O)c1ccc(N2CCc3ccccc3C2)nc1`, the IC50 was 9.71 µM (active).

For the compound `O=C(/C=C/c1cccc([N+](=O)[O-])c1)NCCc1ccc(F)cc1`, the IC50 was 11.8 µM (active).

Another assay deals with T4, Protein RecA (Mycobacterium tuberculosis, UniProt P9WHJ3).
T4 sequence (P9WHJ3 whole entry): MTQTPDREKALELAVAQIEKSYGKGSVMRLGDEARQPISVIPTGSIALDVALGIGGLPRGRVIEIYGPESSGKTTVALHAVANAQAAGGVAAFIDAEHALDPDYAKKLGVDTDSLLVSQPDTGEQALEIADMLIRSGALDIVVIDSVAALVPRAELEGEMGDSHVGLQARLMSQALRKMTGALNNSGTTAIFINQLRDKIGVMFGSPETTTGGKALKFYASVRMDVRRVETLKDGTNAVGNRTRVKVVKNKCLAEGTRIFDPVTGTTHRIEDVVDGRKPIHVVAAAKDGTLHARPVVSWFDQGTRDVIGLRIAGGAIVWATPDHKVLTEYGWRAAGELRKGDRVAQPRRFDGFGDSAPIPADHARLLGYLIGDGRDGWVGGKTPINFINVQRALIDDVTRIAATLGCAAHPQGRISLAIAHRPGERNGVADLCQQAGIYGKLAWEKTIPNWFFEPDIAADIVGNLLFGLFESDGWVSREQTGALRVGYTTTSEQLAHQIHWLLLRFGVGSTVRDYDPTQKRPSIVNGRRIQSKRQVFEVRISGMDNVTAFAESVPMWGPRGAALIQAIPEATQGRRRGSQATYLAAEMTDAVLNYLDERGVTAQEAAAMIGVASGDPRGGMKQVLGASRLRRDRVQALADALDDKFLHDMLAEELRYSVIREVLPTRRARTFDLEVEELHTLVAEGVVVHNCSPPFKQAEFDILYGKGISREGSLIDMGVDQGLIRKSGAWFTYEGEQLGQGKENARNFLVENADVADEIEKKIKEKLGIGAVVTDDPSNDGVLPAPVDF
The assay can be described thus: Fluorescence Cell-Free Homogeneous Dose Retest to Identify Inhibitors of RecA-Intein Splicing Activity. [Related pubchem assays (depositor defined):AID2097, AID2223, AID489010, AID492950]. It is filed as functional.
Consider `Cc1cc(C)n(-c2ccc([N+](=O)[O-])cc2)n1`, for which the EC50 is > 380 µM (inactive).

Take `O=c1[nH]cc(O)c(=O)[nH]1`: the EC50 is 9.27 µM (active).

Turning to `Cc1ccc(C2C(C#N)=C(N)Oc3[nH]nc(-c4cccs4)c32)s1` (stereo not drawn), the EC50 was 1.82 µM (active).

As to `Cc1n[nH]c2c1C(c1c[nH]nc1-c1ccc(F)cc1)C(C#N)=C(N)O2` (stereo not drawn), the EC50 was 3.88 µM (active).

`COc1ccc(C2CC(c3cccs3)=NN2C(=O)CSC2=NCCS2)cc1` (stereo not drawn): the half-maximal effective concentration (EC50) is 5.31 µM (active).

Another assay concerns Streptococcus sp. 'group A'. The assay can be described thus: growth inhibition of control SK(-) GAS strain, dose response, counter-screen for streptokinase expression inhibitor project, luminescence, kanamycin, BacTiterGlo, confirmation (AID 1900). The class given is functional, organism-based.
`COc1ccc(C2CC(c3cccs3)=NN2C(=O)CSC2=NCCS2)cc1` (stereo not drawn): the half-maximal effective concentration (EC50) was 21.5 µM (active).

Test system in another assay: not listed separately
The assay can be described thus: inhibitors of intracellular T. cruzi replication, confirmation, NIH3T3 host cells, beta-gal luminescence (AID 2044).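 Further: intracellular parasites grown in NIH/3T3 mouse fibroblasts as host cells; luminescent beta-galactosidase reporter signal from transgenic T. cruzi replicating inside host cells; inhibitors lower the luminescence signal.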 It is filed as functional, cell-based.
For the compound `Cc1ccn2c(=O)nc(SCC(=O)N3N=C(c4cccs4)CC3c3ccc(F)cc3)nc2c1` (stereo not drawn), the EC50 was 1.35 µM (active).

Test system in another assay: not listed separately
The assay can be described thus: cytotoxicity toward NIH3T3 fibroblasts, dose response, counter-screen, cell-based, ATP luminescence, mouse fibroblasts (AID 2010).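 Further: cells exposed to compound for about 90 hours before reading.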 The class given is functional.
Consider `Cc1ccn2c(=O)nc(SCC(=O)N3N=C(c4cccs4)CC3c3ccc(F)cc3)nc2c1` (stereo not drawn), for which the concentration giving a half-maximal response (EC50) is > 60 µM (not active).

Usually IC50 stands for the midpoint of a concentration-inhibition curve. The EC50 is the concentration at which the effect is half-maximal. A word on the AC50: it is the concentration at which the activity in the assay is half-maximal.

Values taken from ChEMBL document CHEMBL1201862, “PubChem BioAssay data set” (2004).
